{
  "source": "patent US10918645B2",
  "about": "(LIFEARC, priority 2016, dated 2021)",
  "key": {"[1]": {"test_system": "transgenic Drosophila expressing LRRK2-G2019S in dopamine (DA) neurons", "assay": "Drosophila model survival rate", "assay_type": "in vivo", "settings": "significance compared to DMSO negative control", "description": "(§1) Drosophila model was used to evaluate Examples in vivo. The GAL4/UAS system developed by Andrea Brand and Norbert Perrimon in 1993 [45] was used to generate transgenic Drosophila expressing LRRK2-G2019S in dopamine (DA) neurons. The system has two parts: the GAL4 gene, encoding the yeast transcription activator protein GAL4, and the UAS (Upstream Activation Sequence), an enhancer to which GAL4 specifically binds to activate gene transcription. This system takes advantage of the yeast GAL4 transcription factor, which binds specifically to the UAS.\nTo express LRRK2-G2019S in DA neurons, the UAS-Wild Type-LRRK2 and UAS-G2019S-LRRK2 transgenes were combined with the dopa decarboxylase (ddc)-GAL4 driver. The 10 μM GW5074 was used for the positive control. […]\nTwenty newly enclosed female Drosophila were collected and placed in a food vial. The Drosophila were moved to fresh food vials every other day at which time deaths were scored.\nBased on Drosophila′ survival curve, the 50% survival time parameter indicates the time at which half of the Drosophila remained alive and was used to compare the survival ratio between the different groups. The mean 50% survival times and the standard errors were calculated based on 4 separate experiments for each group. The data were analysed by GraphPad PRISM® 6.0 software."}, "[2]": {"test_system": "transgenic Drosophila expressing LRRK2-G2019S in dopamine (DA) neurons", "assay": "Drosophila model climbing assay (negative geotaxis)", "assay_type": "in vivo", "settings": "significance compared to DMSO negative control", "description": "as §1\nTo express LRRK2-G2019S in DA neurons, the UAS-Wild Type-LRRK2 and UAS-G2019S-LRRK2 transgenes were combined with the dopa decarboxylase (ddc)-GAL4 driver. The 10 μM GW5074 was used for the positive control. The negative control group was DMSO control (all compounds were dissolved in DMSO with 1:1000 dillution). The Drosophila were maintained at 25° C. on a 12 hour light-12 hour dark cycle. GW5074 was used as positive control.\nThe negative geotaxis assay was used to analyse the locomotors ability of the Drosophila. Twenty Drosophila from each vial and 4 vials for each group were performed the climbing assay weekly.\nThe tested Drosophila were transferred into a vertical plastic tube (15 cm tall, 1.5 cm in diameter). After 30 min of rest at room temperature, the Drosophila were gently tapped to the bottom of the tube, the numbers of Drosophila that could climb to or above the test line within 10 seconds were counted and the percent were calculated.\nThe climbing abilities were analysed based on three separate experiments for each vial and the data were analysed by GraphPad PRISM® 6.0 software."}, "[3]": {"target": "LRRK2 (phospho S935) in Drosophila brain lysates (Homo sapiens (Human), UniProt Q5S007, G2019S)", "sequence (Q5S007 whole entry G2019S)": "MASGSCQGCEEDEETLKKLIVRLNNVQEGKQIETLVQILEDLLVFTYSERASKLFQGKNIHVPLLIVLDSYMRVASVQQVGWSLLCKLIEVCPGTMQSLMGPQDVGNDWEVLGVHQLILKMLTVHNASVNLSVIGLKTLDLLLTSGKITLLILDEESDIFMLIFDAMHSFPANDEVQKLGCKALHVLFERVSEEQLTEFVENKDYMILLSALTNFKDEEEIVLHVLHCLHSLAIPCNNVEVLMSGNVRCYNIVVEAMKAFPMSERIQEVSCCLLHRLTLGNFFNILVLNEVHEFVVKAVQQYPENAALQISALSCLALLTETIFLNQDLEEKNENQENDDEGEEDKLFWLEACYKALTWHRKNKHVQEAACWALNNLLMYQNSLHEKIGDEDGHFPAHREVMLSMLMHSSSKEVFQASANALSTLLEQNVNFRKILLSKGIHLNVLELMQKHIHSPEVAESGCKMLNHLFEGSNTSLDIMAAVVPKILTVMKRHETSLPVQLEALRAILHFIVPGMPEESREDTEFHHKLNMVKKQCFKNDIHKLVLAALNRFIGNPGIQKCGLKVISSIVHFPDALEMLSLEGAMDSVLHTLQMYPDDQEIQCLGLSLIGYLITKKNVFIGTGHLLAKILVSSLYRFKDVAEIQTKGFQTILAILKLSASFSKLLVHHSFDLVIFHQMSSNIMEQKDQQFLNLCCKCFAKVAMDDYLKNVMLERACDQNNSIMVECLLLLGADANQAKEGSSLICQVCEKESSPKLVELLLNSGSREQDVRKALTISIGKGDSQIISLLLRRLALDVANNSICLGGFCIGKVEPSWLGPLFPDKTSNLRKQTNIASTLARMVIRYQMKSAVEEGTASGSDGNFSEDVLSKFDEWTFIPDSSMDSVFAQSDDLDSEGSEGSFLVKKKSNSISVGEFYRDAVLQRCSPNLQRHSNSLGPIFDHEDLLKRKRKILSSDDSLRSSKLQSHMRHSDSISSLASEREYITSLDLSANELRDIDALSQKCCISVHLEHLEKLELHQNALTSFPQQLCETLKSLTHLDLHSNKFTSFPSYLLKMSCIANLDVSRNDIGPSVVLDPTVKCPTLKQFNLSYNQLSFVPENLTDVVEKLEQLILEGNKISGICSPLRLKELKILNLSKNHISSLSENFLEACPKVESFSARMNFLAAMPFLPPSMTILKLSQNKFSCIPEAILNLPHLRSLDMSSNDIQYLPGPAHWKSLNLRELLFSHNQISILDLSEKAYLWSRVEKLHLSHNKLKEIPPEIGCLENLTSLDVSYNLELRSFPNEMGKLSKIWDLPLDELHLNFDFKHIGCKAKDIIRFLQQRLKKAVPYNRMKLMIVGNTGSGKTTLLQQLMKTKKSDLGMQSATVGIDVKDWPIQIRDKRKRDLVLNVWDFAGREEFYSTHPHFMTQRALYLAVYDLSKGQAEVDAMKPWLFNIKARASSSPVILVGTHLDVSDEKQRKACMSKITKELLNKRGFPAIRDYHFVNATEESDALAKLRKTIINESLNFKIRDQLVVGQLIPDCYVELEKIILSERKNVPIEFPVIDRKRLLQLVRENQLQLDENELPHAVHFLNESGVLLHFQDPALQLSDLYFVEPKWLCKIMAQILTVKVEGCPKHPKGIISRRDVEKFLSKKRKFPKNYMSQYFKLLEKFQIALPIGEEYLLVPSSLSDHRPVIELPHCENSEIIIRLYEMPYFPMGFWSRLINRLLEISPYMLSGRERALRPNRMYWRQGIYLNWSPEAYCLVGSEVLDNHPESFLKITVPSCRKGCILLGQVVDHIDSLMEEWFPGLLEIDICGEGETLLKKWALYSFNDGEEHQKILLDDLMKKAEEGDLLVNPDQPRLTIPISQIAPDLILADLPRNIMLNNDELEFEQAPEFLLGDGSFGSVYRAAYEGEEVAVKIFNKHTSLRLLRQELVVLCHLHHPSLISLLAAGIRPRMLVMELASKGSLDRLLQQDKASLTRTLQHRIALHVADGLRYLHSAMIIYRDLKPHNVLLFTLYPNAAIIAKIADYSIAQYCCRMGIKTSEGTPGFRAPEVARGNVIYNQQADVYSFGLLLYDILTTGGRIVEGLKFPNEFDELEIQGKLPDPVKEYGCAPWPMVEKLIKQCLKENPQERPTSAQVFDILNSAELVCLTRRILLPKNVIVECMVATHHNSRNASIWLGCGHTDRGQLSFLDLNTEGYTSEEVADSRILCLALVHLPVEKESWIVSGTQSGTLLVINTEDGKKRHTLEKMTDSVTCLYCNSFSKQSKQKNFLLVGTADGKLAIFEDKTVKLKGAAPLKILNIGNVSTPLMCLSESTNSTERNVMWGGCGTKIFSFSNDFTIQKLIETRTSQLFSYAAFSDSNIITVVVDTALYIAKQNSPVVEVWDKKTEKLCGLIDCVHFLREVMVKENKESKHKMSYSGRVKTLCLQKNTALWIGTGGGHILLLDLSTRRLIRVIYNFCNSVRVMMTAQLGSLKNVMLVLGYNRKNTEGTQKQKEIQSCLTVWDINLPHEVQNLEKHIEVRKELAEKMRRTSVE", "assay": "Drosophila model kinase assays at week 6", "assay_type": "in vivo", "settings": "ratio of phosphate LRRK2 protein to Flag protein, significance compared to DMSO negative control", "experimental": "The 10 μM GW5074 was used for the positive control. The negative control group was DMSO control (all compounds were dissolved in DMSO with 1:1000 dillution). The Drosophila were maintained at 25° C. on a 12 hour light-12 hour dark cycle. GW5074 was used as positive control [47].\nThe adult Drosophila heads were homogenized on ice, and the brain lysates were performed kinase reaction in kinase reaction buffer with ATP and DTT.\nThen the lysates were electrophoresed through 12% SDS-PAGE gels and transferred to PVDF membranes (Millipore). The membranes were blocked in TBST with 5% skimmed milk for 1 hour at room temperature and then incubated in anti-LRRK2 pSer935 antibody (Abcam, ab133450) and anti-Flag antibody overnight at 4° C.\nThe proteins were detected with HRP-conjugated secondary antibodies and ECL detection reagents. The optical density of immunoblotting was analysed by Image J software and the ratio of phosphate LRRK2 protein compare to Flag protein were calculated and the data were analysed by GraphPad PRISM® 6.0 software."}, "JAK2 [4]": {"target": "T1, JAK2 (Homo sapiens (Human), UniProt O60674)", "assay": "JAK2 kinase selectivity assay (33P panel)", "assay_type": "biochemical", "settings": "1 μM inhibitor concentration", "description": "JAK2 (5-20 mU diluted in 50 mM Tris pH 7.5, 0.1 mM EGTA, 0.05% 0-mercaptoethanol, 1 mg/ml BSA) is assayed against PDKtide ([…]-[…]) in a final volume of 25.5 μl containing 50 mM Tris pH 7.5, 0.1 mM EGTA, 0.05% 0-mercaptoethanol, 100 μM substrate peptide, 10 mM magnesium acetate and 0.005 mM [33P-γ-ATP] (50-1000 cpm/pmole) and incubated for 30 min at room temperature Assays are stopped by addition of 5 μl of 0.5 M (3%) orthophosphoric acid and then harvested onto P81 Unifilter plates with a wash buffer of 50 mM orthophosphoric acid."}, "JAK2 [5]": {"target": "T1, JAK2", "assay": "LANCE Kinase Assay (JAK2_IC50 selectivity assay)", "assay_type": "biochemical", "description": "In LANCE® Kinase Assay (JAK2_IC50 selectivity assay): JAK2 (Invitrogen, Cat. No PV4288), ATP (Sigma, Cat. No. A7699-1G), DMSO (Sigma, Cat. No. D2650), DTT (Sigma, Cat. No. 43815), LANCE Ultra ULight™-JAK-1 peptide (Perkin Elmer, Cat. No. TRF0121), LANCE Eu-W1024 Anti-phosphotyrosine (PT66) (Perkin Elmer, Cat. No. AD0069), LANCE™ Detection Buffer (Perkin Elmer, Cat. No. CR97-100), Tofacitinib (PharmaBlock Sciences(Nanjing), Inc, Cat. No. PBN2011586-01); Equipments: Envision (Perkin Elmer), Bravo (Agilent); Consumables: 384 well Intermediate plate (Greiner, Cat. No. 781280), 384 well assay plate (Perkin Elmer, Cat. No. 6007299),\nThe assay involves two steps, the enzymatic step and the detection step with HTRF reagents. Step 1: During the enzymatic step the substrate-biotin is incubated with the kinase of interest. ATP is added to start the reaction. Step 2: The detection reagent catches the phosphorylated substrate and the resulting TR-FRET is proportional to the phosphorylation level.\nCompound Preparation: Dissolve the test compounds into 30 mM DMSO solution and put them in nitrogen hood at room temperature for long term storage; Dilute the 30 mM compound in DMSO with 3-fold factor, total 11 concentrations; Aspirate 1 μl compound and then dilute them in 25 folds with kinase buffer. Mix well and balance 30 minutes at room temperature.\nKinase Reaction: Transfer 2.5 μl compounds in kinase buffer (4×) into assay plate by Agilent Bravo. Spin the plate; Transfer 5 μl enzyme mixture into the assay plate by using Eppendorf electronic multi-channel pipette. Spin the plate; Incubate the assay plate for 20 minutes at room temperature (23° C.); Add 2.5 μl kinase buffer with ATP into the assay plate by using Multidrop. Spin and seal the plate; Incubate the assay plate for 90 minutes at room temperature (23° C.).\nStop Reaction: Transfer 10 μl detection reagent (2 nM LANCE Eu-W1024 Anti-phosphotyrosine) into the assay plate by using Eppendorf electronic multi-channel pipette. Spin and seal the plate; Incubate the assay plate at room temperature (23° C.) for 60 minutes.\nDetection and Read: The excitation wavelength is 340 nm, the primary emission wavelength is 615 nm and the secondary emission wavelength is 665 nm (for Cryptate and Ulight, respectively). Read the plate with EnVision to get the readout of both wavelengths; Calculate the ratio of 665 nm/615 nm.\nIC50 estimates were obtained using the software XLfit (IDBS Inc.)."}},
  "note": "pIC50: −log10 of the molar value.",
  "data": [
    {"smiles": "c1cc2[nH]nc3c2c(n1)N(C1CCOCC1)CCC3", "note": "[Example 29, 6-(tetrahydro-2H-pyran-4-yl)-6,7,8,9-tetrahydro-2H-1,2,5,6-tetraazabenzo[cd]azulene]", "values": [
      {"measurement": "Survival Rate", "setting": "[1]", "result": "* (P < 0.05, compared to DMSO negative control)"},
      {"measurement": "Climbing Assay 3 weeks", "setting": "[2]; 3 weeks", "result": "* (P < 0.05, compared to DMSO negative control)"},
      {"measurement": "Climbing Assay 4 weeks", "setting": "[2]; 4 weeks", "result": "** (P < 0.01, compared to DMSO negative control)"},
      {"measurement": "Climbing Assay 5 weeks", "setting": "[2]; 5 weeks", "result": "* (P < 0.05, compared to DMSO negative control)"},
      {"measurement": "Climbing Assay 6 weeks", "setting": "[2]; 6 weeks", "result": "* (P < 0.05, compared to DMSO negative control)"},
      {"measurement": "Kinase Assays", "setting": "[3]", "result": "* (P < 0.05, compared to DMSO negative control)"}
    ]},
    {"smiles": "c1cc2[nH]nc3c2c(n1)N(C1CCC1)CCC3", "note": "[Example 22, 6-cyclobutyl-6,7,8,9-tetrahydro-2H-1,2,5,6-tetraazabenzo[cd]azulene]", "values": [
      {"measurement": "percentage inhibition of JAK2", "setting": "JAK2 [4]", "result": 5, "unit": "percentage"},
      {"measurement": "pIC50", "setting": "JAK2 [5]", "result": 5.08}
    ]},
    {"smiles": "CC(C)n1ncc2c1CN(C1CCN(C)CC1)c1nccc3[nH]nc-2c13", "note": "[Example 68]", "values": [
      {"measurement": "pIC50", "setting": "JAK2 [5]", "result": 5.20}
    ]},
    {"smiles": "c1cc2[nH]nc3c2c(n1)N(C1CCCC1)CCC3", "note": "[Example 23, 6-cyclopentyl-6,7,8,9-tetrahydro-2H-1,2,5,6-tetraazabenzo[cd]azulene]", "values": [
      {"measurement": "percentage inhibition of JAK2", "setting": "JAK2 [4]", "result": 12, "unit": "percentage"}
    ]}
  ]
}
